The text below walks through data of US10822323B2, “Acid labile surfactants” (Waters Technologies Corporation, priority 2018, dated 2020).

Molecules are shown by their SMILES. ≈ marks a conversion by molar mass, not a printed value.

The nature of this series: Dissolution study of hydrophobic moieties in acetonitrile / 20 mM ammonium bicarbonate buffer solutions. It counts as physicochemical. Conditions: for Observed Solubility: 21° C.; for solubility: 21 °C, aqueous with cosolvent or surfactant or cyclodextrin, thermodynamic from solid. As to the method:
A dissolution study was performed on compounds 3 (commercially available—Sigma Aldrich P/N 172839 99%) 6, and 8 (Synthesis described above) at 21° C. in different buffer solutions containing a mixture of standard chromatographic solvents, e.g., acetonitrile and 20 mM aqueous […]. 20 mM aqueous ammonium bicarbonate was made by dissolving 474 mg ammonium bicarbonate in 300 mL MiliQ water.

Where [1] appears, read: 10% acetonitrile buffer solution, stated weight in stated buffer volume (3: 180 mL; 6: 120 mL; 8: 24 mL).
Setting [2] is: 30% acetonitrile buffer solution, stated weight in stated buffer volume (3: 50 mL; 6: 10 mL; 8: 1.4 mL).
Where [3] appears, read: 10 mL acetonitrile and 90 mL 20 mM ammonium bicarbonate (10% acetonitrile).
The mark [4] stands for this setting: 30 mL acetonitrile and 70 mL 20 mM ammonium bicarbonate (30% acetonitrile).

Consider `CCCCCCCCCCCC(C)=O` [Compound 3, reference compound], for which the “Observed Solubility” value was “At 6 mg: Not dissolved” under setting [1] and “At 30 mg: Not dissolved” under setting [2]. Also, the solubility (usually the concentration that dissolves in the medium under given conditions) reads like this: under setting [3], under 30 µg/mL; under setting [4], under 1000 µg/mL.

In the case of `CCCCCCCCCCCOCC(O)CO` (stereo not drawn) [Compound 6, 3-(undecyloxy)-1,2-propanediol], the “Observed Solubility” value is “At 6 mg: Not dissolved” under setting [1]; “At 70 mg: Dissolved” (30% acetonitrile buffer solution, stated weight in stated buffer volume (3: 50 mL; 6: 10 mL; 8: 1.4 mL), 70 mg in 10 mL buffer); “At 90 mg: Not dissolved” (30% acetonitrile buffer solution, stated weight in stated buffer volume (3: 50 mL; 6: 10 mL; 8: 1.4 mL), 90 mg in 10 mL buffer). In addition, the solubility is, setting by setting: under setting [3], under 50 µg/mL; under setting [4], about 8000 µg/mL (≈ 32.5 mM).

As to `CCCCCCCCCOCC(O)CO` (stereo not drawn) [Compound 8, 3-nonoxypropane-1,2-diol], the “Observed Solubility” value under setting [2] is reported as “At 200 mg: Dissolved”. Moreover, the solubility runs as follows: under setting [3], about 500 µg/mL (≈ 2.29 mM); under setting [4], about 140000 µg/mL (≈ 641 mM).
